Columns and labels:
[1] = biological target: T1, HCV NS5B RdRp genotype 1b (Hepatitis C virus genotype 1b, UniProt Q9WMX2); assay: HCV NS5B RdRp enzyme assay (standard / modified); format: biochemical; details: HCV NS5B genotype 1b
T1 construct: The protein was expressed with an 18 amino acid C-terminal truncation to enhance the solubility; made in house; host or cells: E. coli BL21(DE3), pET21a vector
Procedure: HCV NS5B RdRp cloning, expression, and purification. The cDNA encoding the NS5B protein of HCV, genotype 1b, was cloned into the pET21a expression vector. The protein was expressed with an 18 amino acid C-terminal truncation to enhance the solubility. The E. coli competent cell line BL21(DE3) was used for expression of the protein. Cultures were grown at 37° C. for ˜4 hours until the cultures reached an optical density of 2.0 at 600 nm. The cultures were cooled to 20° C. and induced with 1 mM IPTG. Fresh ampicillin was added to a final concentration of 50 μg/ml and the cells were grown overnight at 20° C.
Cell pellets (3 L) were lysed for purification to yield 15-24 mgs of purified NS5B. The lysis buffer consisted of 20 mM Tris-HCl, pH 7.4, 500 mM NaCl, 0.5% triton X-100, 1 mM DTT, 1 mM EDTA, 20% glycerol, 0.5 mg/ml lysozyme, 10 mM MgCl2, 15 ug/ml deoxyribonuclease I, and Complete™ protease inhibitor tablets (Roche). After addition of the lysis buffer, frozen cell pellets were resuspended using a tissue homogenizer. To reduce the viscosity of the sample, aliquots of the lysate were sonicated on ice using a microtip attached to a Branson sonicator. The sonicated lysate was centrifuged at 100,000×g for 1 hr at 4° C. and filtered through a 0.2 μm filter unit (Corning).
The protein was purified using three sequential chromatography steps: Heparin sepharose CL-6B, polyU sepharose 4B, and Hitrap SP sepharose (Pharmacia). The chromatography buffers were identical to the lysis buffer but contained no lysozyme, deoxyribonuclease I, MgCl2 or protease inhibitor and the NaCl concentration of the buffer was adjusted according to the requirements for charging the protein onto the column. Each column was eluted with a NaCl gradient which varied in length from 5-50 column volumes depending on the column type. After the final chromatography step, the resulting purity of the enzyme is >90% based on SDS-PAGE analysis. The enzyme was aliquoted and stored at −80° C.
Standard HCV NS5B RdRp enzyme assay. HCV RdRp genotype 1b assays were run in a final volume of 60 μl in 96 well plates (Costar 3912). The assay buffer is composed of 20 mM Hepes, pH 7.5, 2.5 mM KCl, 2.5 mM MgCl2, 1 mM DTT, 1.6 U RNAse inhibitor (Promega N2515), 0.1 mg/ml BSA (Promega R3961), and 2% glycerol. All compounds were serially diluted (3-fold) in DMSO and diluted further in water such that the final concentration of DMSO in the assay was 2%. HCV RdRp genotype 1b enzyme was used at a final concentration of 28 nM. A polyA template was used at 6 nM, and a biotinylated oligo-dT12 primer was used at 180 nM final concentration. Template was obtained commercially (Amersham 27-4110). Biotinylated primer was prepared by Sigma Genosys. 3H-UTP was used at 0.6 μCi (0.29 μM total UTP). Reactions were initiated by the addition of enzyme, incubated at 30° C. for 60 min, and stopped by adding 25 μl of 50 mM EDTA containing SPA beads (4 μg/μl, Amersham RPNQ 0007). Plates were read on a Packard Top Count NXT after >1 hr incubation at room temperature.
Modified HCV NS5B RdRp enzyme assay. A modified enzyme assay was performed essentially as described for the standard enzyme assay except for the following: The biotinylated oligo dT12 primer was precaptured on streptavidin-coated SPA beads by mixing primer and beads in assay buffer and incubating at room temperature for one hour. Unbound primer was removed after centrifugation. The primer-bound beads were resuspended in 20 mM Hepes buffer, pH 7.5 and used in the assay at final concentrations of 20 nM primer and 0.67 μg/μl beads. Order of addition in the assay: enzyme (14 nM) was added to diluted compound followed by the addition of a mixture of template (0.2 nM), 3H-UTP (0.6 μCi, 0.29 μM), and primer-bound beads, to initiate the reaction; concentrations given are final. Reactions were allowed to proceed for 4 hours at 30° C.
IC50 values for compounds were determined using seven different [I]. […]

[2] = tested on: HCV replicon cells; assay: HCV replicon assay (FRET or luciferase readout); format: cell-based; details: Hepatitis C virus
Text: FRET Assay Preparation. To perform the HCV FRET screening assay, 96-well cell culture plates were used. The FRET peptide (Anaspec, Inc.) (Taliani et al., Anal. Biochem. 1996, 240, 60-67) contains a fluorescence donor, EDANS, near one end of the peptide and an acceptor, DABCYL, near the other end. The fluorescence of the peptide is quenched by […] resonance energy transfer (RET) between the donor and the acceptor, but as the NS3 protease cleaves the peptide the products are released from RET quenching and the fluorescence of the donor becomes apparent. The assay reagent was made as follows: 5× cell Luciferase cell culture lysis reagent from Promega (#E153A) diluted to 1× with dH2O, NaCl added to 150 mM final, the FRET peptide diluted to 20 μM final from a 2 mM stock.
To prepare plates, HCV replicon cells, with or without a Renilla luciferase reporter gene, were trypsinized and placed into each well of a 96-well plate with titrated test compounds added in columns 3 through 12; columns 1 and 2 contained a control compound (HCV protease inhibitor), and the bottom row contained cells without compound. The plates were then placed in a CO2 incubator at 37° C.
Assays. Subsequent to addition of the test compounds described above (FRET Assay Preparation), at various times the plate was removed and Alamar blue solution (Trek Diagnostics, #00-100) was added per well as a measure of cellular toxicity. After reading in a Cytoflour 4000 instrument (PE Biosystems), plates were rinsed with PBS and then used for FRET assay by the addition of 30 ul of the FRET peptide assay reagent described above (FRET Assay Preparation) per well. The plate was then placed into the Cytoflour 4000 instrument which had been set to 340 excite/490 emission, automatic mode for 20 cycles and the plate read in a kinetic mode. Typically, the signal to noise using an endpoint analysis after the reads was at least three-fold. Alternatively, after Alamar blue reading, plates were rinsed with PBS, 50 ul of DMEM (high glucose) without phenol red was added and plates were then used for luciferase assay using the Promega Dual-Glo Luciferase Assay System.
Compound analysis was determined by quantification of the relative HCV replicon inhibition and the relative cytotoxicity values. To calculate cytoxicity values, the average Alamar Blue fluorescence signals from the control wells were set as 100% non-toxic. The individual signals in each of the compound test wells were then divided by the average control signal and multiplied by 100% to determine […]. To calculate the HCV replicon inhibition values, an average background value was obtained from the two wells containing the highest amount of HCV protease inhibitor at the end of the assay period. These numbers were similar to those obtained from naïve Huh-7 cells.
The background numbers were then subtracted from the average signal obtained from the control wells and this number was used as 100% activity. The individual signals in each of the compound test wells were then divided by the averaged control values after background subtraction and multiplied by 100% to determine percent activity. EC50 values for a protease inhibitor titration were calculated as the concentration which caused a 50% reduction in FRET or luciferase activity. The two numbers generated for the compound plate, percent cytoxicity and percent activity were used to determine compounds of interest for further analysis.

T1 sequence (Q9WMX2 2420-2992): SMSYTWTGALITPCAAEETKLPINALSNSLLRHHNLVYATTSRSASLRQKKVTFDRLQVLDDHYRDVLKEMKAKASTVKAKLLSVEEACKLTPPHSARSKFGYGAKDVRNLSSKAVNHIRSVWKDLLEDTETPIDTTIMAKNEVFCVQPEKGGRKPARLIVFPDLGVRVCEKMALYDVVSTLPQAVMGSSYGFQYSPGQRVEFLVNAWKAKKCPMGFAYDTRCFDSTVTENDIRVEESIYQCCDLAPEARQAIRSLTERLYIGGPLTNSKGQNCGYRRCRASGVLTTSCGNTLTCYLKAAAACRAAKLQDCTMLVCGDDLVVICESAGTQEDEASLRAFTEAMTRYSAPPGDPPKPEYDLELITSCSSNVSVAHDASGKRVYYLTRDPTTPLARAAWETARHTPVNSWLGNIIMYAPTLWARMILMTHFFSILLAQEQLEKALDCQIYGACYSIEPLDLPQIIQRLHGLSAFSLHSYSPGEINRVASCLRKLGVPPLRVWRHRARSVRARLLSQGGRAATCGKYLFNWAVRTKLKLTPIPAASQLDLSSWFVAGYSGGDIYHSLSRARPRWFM

| Structure (SMILES) | IC50 ([1]; Table 1) | EC50 ([2]; Table 1) | IC50 ([1]; Table 2) | EC50 ([2]; Table 2) |
| --- | --- | --- | --- | --- |
| CNC(=O)c1c(-c2ccc(F)cc2)nc2ccc(-c3cc(C(=O)NC(C)(C)c4ccccc4)ccc3Cl)cn12 | 2 to 250 nM | 2 to 250 nM | – | – |
| CNC(=O)c1c(-c2ccc(F)cc2)sc2ccc(-c3cccc(C(=O)NC(C)(C)c4ccccc4)c3)cc12 | 2 to 250 nM | 250 to 1000 nM | – | – |
| CNC(=O)c1c(-c2ccc(F)cc2)nn2ccc(-c3cccc(C(=O)NC4(c5ccccc5)CCC4)c3)cc12 | 2 to 250 nM | 2 to 250 nM | – | – |
| CCN(c1cn2nc(-c3ccc(F)cc3)c(C(=O)NC)c2cc1-c1cccc(C(=O)NC(C)(C)c2ccccc2)c1)S(C)(=O)=O [drawing 176] | – | – | 9.6 nM | 5.98 nM |
| CNC(=O)c1c(-c2ccc(F)cc2)nn2cc(N(CC3CC3)S(C)(=O)=O)c(-c3cccc(C(=O)NC(C)(C)c4ccccc4)c3)cc12 | 2 to 250 nM | 2 to 250 nM | – | – |
| CNC(=O)c1c(-c2ccc(F)cc2)nn2cc(NS(C)(=O)=O)c(-c3cccc(C(=O)NC(C)(C)c4ccccc4)c3)cc12 | 2 to 250 nM | 1000 to 10000 nM | – | – |
| CNC(=O)c1c(-c2ccc(F)cc2)nc2ccc(-c3cccc(C(=O)NC(C)(C)c4ccccc4)c3)cn12 | 2 to 250 nM | 2 to 250 nM | – | – |
| CNC(=O)c1c(-c2ccc(F)cc2)nn2ccc(-c3cc(C(=O)NC4(C(C)C)CC4)c(OC)cc3C)c(F)c12 | 2 to 250 nM | 2 to 250 nM | – | – |
| CNC(=O)c1c(-c2ccc(F)cc2)nn2ccc(-c3cc(C(=O)NC4(c5nc(C)no5)CC4)ccc3C)c(F)c12 | 1000 to 10000 nM | > 10000 nM | – | – |
| CNC(=O)c1c(-c2ccc(F)cc2)[nH]c2ccc(-c3cccc(C(=O)NC(C)(C)c4ccccc4)c3)cc12 [drawing 181] | – | – | 720 nM | 460 nM |
| CNC(=O)c1c(-c2ccccc2)nn2ccc(-c3cccc(C(=O)NC(C)(C)c4ccccc4)c3)cc12 | 2 to 250 nM | 2 to 250 nM | – | – |
| CNC(=O)c1c(-c2ccc(F)cc2)n(C)c2ccc(-c3cccc(C(=O)NC(C)(C)c4ccccc4)c3)cc12 | > 10000 nM | > 10000 nM | – | – |
| CNC(=O)c1c(-c2ccccc2)nn2cc(-c3ccccc3C)ccc12 | > 10000 nM | > 10000 nM | – | – |
| CNC(=O)c1c(-c2ccc(F)cc2)nn2ccc(-c3cccc(C(=O)NC(C)(C)c4ccccc4)c3)cc12 | 2 to 250 nM | 2 to 250 nM | – | – |
| CNC(=O)c1c(-c2ccc(F)cc2)nc2ccc(-c3cc(C(=O)NC4(c5ccccn5)CC4)ccc3C)cn12 | 2 to 250 nM | 2 to 250 nM | – | – |
| CNC(=O)c1c(-c2ccc(F)cc2)nn2ccc(-c3cc(C(=O)NC4(c5ccccn5)CC4)c(OC)cc3C)c(F)c12 [drawing 135] | 2 to 250 nM | 2 to 250 nM | – | – |
| CNC(=O)c1c2cc(-c3cccc(C(=O)NC4(c5ccccn5)CC4)c3)ccc2nn1-c1ccc(F)cc1 | 1000 to 10000 nM | 1000 to 10000 nM | – | – |
| CNC(=O)c1c(-c2ccc(F)cc2)nn2ccc(-c3cccc(C(=O)NC(C)(C)C)c3)cc12 | 250 to 1000 nM | 2 to 250 nM | – | – |
| CNC(=O)c1c(-c2ccc(F)cc2)nn2ccc(-c3cc(C(=O)NC4(c5ncccn5)CC4)ccc3C)c(F)c12 | 2 to 250 nM | 2 to 250 nM | – | – |
| CNC(=O)c1c(-c2ccc(F)cc2)nn2ccc(-c3cc(C(=O)NC4(c5ccccc5)CC4)ccc3C)cc12 [drawing 87] | 2 to 250 nM | 2 to 250 nM | – | – |
| CNC(=O)c1c(-c2ccc(F)cc2)oc2ncc(-c3cccc(C(=O)NC4(c5ccccc5)CC4)c3)cc12 | 2 to 250 nM | 2 to 250 nM | – | – |
| CNC(=O)c1c(-c2ccc(F)cc2)nn2ccc(-c3cc(C(=O)NC4(c5ccccc5)CC4)c(OC)cc3C)c(F)c12 [drawing 134] | 2 to 250 nM | 2 to 250 nM | – | – |
| CNC(=O)c1c(-c2ccc(F)cc2)nn2ccc(-c3cc(C(=O)NC4(c5ccccn5)CC4)c(OC)cc3C)c(F)c12 [drawing 178] | – | – | 20 nM | 8.39 nM |
| CNC(=O)c1c(-c2ccccc2)nn2cc(N3CCCCS3(=O)=O)ccc12 | > 10000 nM | > 10000 nM | – | – |
| CNC(=O)c1c(-c2ccc(F)cc2)nn2c(C)cc(-c3cc(C(=O)NC4(c5ccccc5)CC4)ccc3C)cc12 | 2 to 250 nM | 2 to 250 nM | – | – |
| CNC(=O)c1c(-c2ccc(F)cc2)nn2ccc(-c3cc(C(=O)NC4(c5cc(C)on5)CC4)c(OC)cc3C)c(F)c12 | 2 to 250 nM | 2 to 250 nM | – | – |
| CNC(=O)c1c(-c2ccc(F)cc2)nn2cc(N(CCO)S(C)(=O)=O)c(-c3cc(C(=O)NCC(C)C)ccc3Cl)cc12 | 2 to 250 nM | 250 to 1000 nM | – | – |
| CNC(=O)c1c(-c2ccc(F)cc2)nn2ccc(NC(=O)c3ccccc3OC)cc12 | > 10000 nM | > 10000 nM | – | – |

From patent US8293909B2, “Compounds for the treatment of hepatitis C” (Bristol-Myers Squibb Company, priority 2008, dated 2012)
